Source: patent US20230025280A1, “PH RESPONSIVE COMPOSITIONS, FORMULATIONS, AND METHODS OF IMAGING A TUMOR” (ONCONANO MEDICINE, INC, priority 2019, published 2023)
Values joined by “and” are separate entries in the source; they are usually repeats but may differ in a detail not shown here. Equal entries are not always repeated.

What was measured:
[1] = test system: solid cancers (HNSCC, breast cancer, esophageal cancer, or colorectal cancer); test: Intraoperative fluorescence imaging of tumors (in vivo and back table; MFI, CNR, TBR); parameters: species or system human; settings: for In Vivo CNR / In Vivo TBR: per patient, open field cameras; for Patient tumors showing Compound 1 fluorescence intraoperatively: 0.1 to 1.2 mg/kg, 24±8 h post dose; for Tumors visualized intraoperatively by Compound 1 fluorescence / Tumors that could not be visualized intraoperatively: Phase 1 overall
From the text: During surgery, intraoperative images of Compound 1 fluorescence were obtained from the primary tumors and metastatic lymph nodes as well as the surrounding tissue which include normal noncancerous tissues using NIR camera(s). This may be in vivo and/or ex vivo imaging of resected specimens. If the surgeon considered it safe, up to a maximum of 10 study related biopsies were taken from the regions with Compound 1 fluorescence that were otherwise not suspected as tumor clinically. Feasibility to image tumors with Compound 1 using multiple NIR cameras was evaluated.
Intraoperative images and videos of “open surgery” were obtained using either the NOVADAQ SPY Elite or the SurgVision Explorer Air. The distance of the camera to the tumor was approximately 20 cm for the Explorer Air and 30 cm for the NOVADAQ SPY, according to manual instructions. The NOVADAQ SPY camera was only able to make fluorescent videos, which could be converted to images during post-processing. The settings for raw data acquisition for this camera were fixed. For the Explorer Air, attempt was made to use the same settings (exposure time and gain) for each patient to allow direct comparison between the images obtained from both the systems, however, depending on the amount of fluorescence visible during surgery, adjustments were needed in some cases due to saturation of the camera system. In some patients, the Olympus NIR laparoscope and Da Vinci Firefly camera systems were used when no open surgery was performed. Systems were used according to the manufacturer's manual.
First, pre-excision fluorescence images and/or movies of the tumor and surrounding areas were made. After surgical excision, images of the wound bed were obtained. In cases where a fluorescence region was visible in the wound bed, a biopsy was taken when feasible, and the excised specimen imaged on all sides on the back table in the operating room. If applicable, lymph nodes were imaged when possible in situ and on the back table, after which the wound bed of the lymph node dissection was imaged again.
Designated imaging study staff performed fluorescence imaging. The surgeon was blinded to the pre-excision imaging to avoid any bias on standard surgery, but was able to look at a second monitor for white-light images while performing the surgical procedure. The surgeon assisted in the wound bed and back table imaging. During the imaging procedure, the ambient light in the surgical theatre was switched off to prevent possible interaction with the fluorescence imaging procedure itself.
Images were processed using Fiji (ImageJ, version 2.0.0). Images were scaled on a per-patient basis, based on the maximum and minimum fluorescent intensity per pixel.
Immediately after excision, the whole specimen was imaged on all 6 resection planes (e.g., frontal, dorsal, lateral, medial, caudal and cranial) using both the designated intraoperative camera system as well as the LI-COR PEARL® Trilogy system within a maximum duration of 60 minutes after surgical excision of the specimen (intraoperative back table imaging). […] Specimens were inked with blue and black ink to mark resection planes.
A macroscopic correlation between visible white light of the tumor areas and corresponding fluorescence images was made. After drawing ROIs containing macroscopic tumor and ROIs containing background, MFI of both tumor and background areas were calculated. Fluorescence ratios (CNR, TBR) were calculated on a per patient basis (3 measurements per patient) following the calculations described above.

HNSCC specimen = test: Fluorescence microscopy after spraying Compound 1 onto freshly frozen tissue sections; parameters: species or system human; settings: sprayed ex vivo onto freshly frozen HNSCC sections
From the text: FIGS. 18A-18B describes fluorescence microscopy to confirm tumor-specific activation of Compound 1. […] DAPI was applied for nuclear staining (a) and Compound 1 for fluorescence visualization (b). […] RFU: relative fluorescence units.

Q: For “PEO90-140-b-P(DBA60-150-r-ICG0-3-r-AMA0-3) [Compound 1]”, which “In Vivo CNR” value ([1]; 0.1 mg/kg, HNSCC) is on record?
A: Its value is 2.9 and 21.5 and 3.3.

Q: What about the “In Vivo TBR” value ([1]; 0.1 mg/kg, HNSCC) of the same substance?
A: The value was 1.7 (2×) and 5.7.

Q: And the “In Vivo CNR” value ([1]; 0.5 mg/kg, BC)?
A: The value was 2.5.

Q: And the “In Vivo TBR” value ([1]; 0.5 mg/kg, BC)?
A: The value was 1.6.

Q: And the “In Vivo CNR” value ([1]; 0.5 mg/kg, HNSCC)?
A: The value was 17.3 and 29.3.

Q: And the “In Vivo TBR” value ([1]; 0.5 mg/kg, HNSCC)?
A: Its value is 3.3 and 5.0.

Q: And the “In Vivo CNR” value ([1]; 0.8 mg/kg, BC)?
A: The value was 12.7.

Q: What about the “In Vivo TBR” value ([1]; 0.8 mg/kg, BC) of the same substance?
A: The value was 3.7.

Q: And the “In Vivo CNR” value ([1]; 0.8 mg/kg, HNSCC)?
A: The value was 4.1.

Q: What about the “In Vivo TBR” value ([1]; 0.8 mg/kg, HNSCC) of the same substance?
A: Its value is 2.7.

Q: What about the “Patients for whom in vivo (intraoperative) imaging was feasible” value ([1]; 1.2 mg/kg, Phase 1a and 1b, all tumor types) of the same substance?
A: Its value is 11 of 18 and 11 of the 18.

Q: And the “Patients for whom in vivo imaging was feasible” value ([1]; 1.2 mg/kg, BC)?
A: Its value is 3 of 5.

Q: And the “In Vivo CNR” value ([1]; 1.2 mg/kg, BC)?
A: Its value is 7.8 and 9.2 and 1.3.

Q: What about the “In Vivo TBR” value ([1]; 1.2 mg/kg, BC) of the same substance?
A: The value was 3.9 and 3.4 and 1.2.

Q: And the “Patients for whom in vivo imaging was feasible” value ([1]; 1.2 mg/kg, CRC)?
A: The value was 1 of 3.

Q: And the “In Vivo CNR” value ([1]; 1.2 mg/kg, CRC)?
A: Its value is 7.4.

Q: And the “In Vivo TBR” value ([1]; 1.2 mg/kg, CRC)?
A: The value was 2.4.

Q: And the “Patients for whom in vivo imaging was feasible” value ([1]; 1.2 mg/kg, EC)?
A: The value was 0 of 3.

Q: What about the “Patients for whom in vivo imaging was feasible” value ([1]; 1.2 mg/kg, HNSCC) of the same substance?
A: Its value is 7 of 7.

Q: And the “In Vivo CNR” value ([1]; 1.2 mg/kg, HNSCC)?
A: The value was 28.7 and 5.8 and 20.8 and 29.9 and 3.4 and 2.8 and 3.5.

Q: And the “In Vivo TBR” value ([1]; 1.2 mg/kg, HNSCC)?
A: Its value is 4.7 and 2.1 and 2.9 and 5.4 and 2.3 and 1.8 and 2.7.

Q: And the “Median in vivo TBR” value ([1]; 1.2 mg/kg, mucosal tumors (HNSCC), interquartile range of 1.4)?
A: Its value is 2.6.

Q: What about the “Median in vivo CNR” value ([1]; 1.2 mg/kg, mucosal tumors (HNSCC), interquartile range of 17.6) of the same substance?
A: Its value is 5.6.

Q: And the “Patients in whom fluorescence imaging was feasible (patients with viable tumors)” value ([1]; Phase 1, all 4 tumor types)?
A: The value was 29 out of 30.

Q: What about the “Patient tumors showing Compound 1 fluorescence intraoperatively” value ([1]; Phase 1a, BC) of the same substance?
A: Its value is “Two of the 7 and 2 of 7”.

Q: What about the “Patient tumors showing Compound 1 fluorescence intraoperatively” value ([1]; Phase 1a, HNSCC) of the same substance?
A: Its value is 8 and 8 of 8.

Q: What about the “CNR and TBR values” ([1]; Phase 1a, in vivo tumor and postoperative specimen fluorescence) of the same substance?
A: Its value is 2-15.

Q: What about the “Intraoperative detection of intraluminal EC tumors” value ([1]; Phase 1b, 3 EC tumors, extraluminal imaging, 1.2 mg/kg) of the same substance?
A: The value was “not detected”.

Q: What about the “Patient tumors in which Compound 1 fluoresced intraoperatively” value ([1]; Phase 1b, BC, 1.2 mg/kg) of the same substance?
A: The value was 3 of 4.

Q: And the “Patient tumors in which Compound 1 fluoresced intraoperatively” value ([1]; Phase 1b, CRC, 1.2 mg/kg)?
A: The value was 2 of 3.

Q: What about the “Patient tumors in which Compound 1 fluoresced intraoperatively” value ([1]; Phase 1b, HNSCC, 1.2 mg/kg) of the same substance?
A: Its value is 5 of 5.

Q: What about the “Patient tumors in which Compound 1 fluoresced intraoperatively” value ([1]; Phase 1b, all tumor types, 1.2 mg/kg) of the same substance?
A: The value was 10/15.

Q: What about the “Tumors visualized intraoperatively by Compound 1 fluorescence” value (“Tumors visualized intraoperatively” for short) ([1]; CRC) of the same substance?
A: The value was 2 of 3.

Q: What about the “Tumors that could not be visualized intraoperatively” value ([1]; CRC (distant rectal tumor)) of the same substance?
A: The value was 1 of 3.

Q: And the “Tumors visualized intraoperatively” value ([1]; HNSCC)?
A: Its value is 13.

Q: And the “Tumors that could not be visualized intraoperatively” value ([1]; deeper seated BC)?
A: Its value is 6 of 11.

Q: What about the “Tumors that could not be visualized intraoperatively” value ([1]; intraluminal EC) of the same substance?
A: Its value is 2 of 3.

Q: What about the “Tumors visualized intraoperatively” value ([1]; superficially seated BC) of the same substance?
A: The value was 5 of 11.

Q: And the “Intraoperative TBR and CNR values” ([1]; all patients with feasible intraoperative imaging)?
A: The value was “high”.

Q: What about the “Fluorescence delineation on tissue sections” value (HNSCC specimen) of the same substance?
A: Its value is “sharp delineation of fluorescence between the tumor and stromal tissue”.
